# In patent publication US9237747B2, “Herbicidal compositions comprising 4-amino-3-chloro-5-fluoro-6-(4-chloro-2-fluoro-3-methoxyphenyl) pyridine-2-carboxylic acid or a derivative thereof and insecticides” (priority 2013, dated 2016):
# Read-outs that look alike come from different tables or passages of the source.
# Key:
# LEFCH = experiment: whole plant or invertebrate; type: in vivo, Leptochloa chinensis; details: Dinebra chinensis, post-emergence, 528 h, read-out: Visual Weed Control (%) - 22 DAA LEFCH Obs
# Description: (§1) Seeds or nutlets of the desired test plant species were planted in a soil matrix prepared by mixing a loam or sandy loam soil (e.g., 28.6 percent silt, 18.8 percent clay, and 52.6 percent sand, with a pH of about 5.8 and an organic matter content of about 1.8 percent) and calcareous grit in an 80 to 20 ratio. The soil matrix was contained in plastic pots with a volume of 1 quart and a surface area of 83.6 square centimeters (cm^2). […] The plants were grown for 8-22 days in a greenhouse with an approximate 14 hour (h) photoperiod which was maintained at about 29° C. during the day and 26° C. during the night. Nutrients (Peters Excel® 15-5-15 5-Ca 2-Mg and iron chelate) were applied in the irrigation solution as needed and water was added on a regular basis. Supplemental lighting was provided with overhead metal halide 1000-Watt lamps as necessary. The plants were employed for testing when they reached the first through fourth true leaf stage.
# (§2) Treatments consisted of the acid or esters of 4-amino-3-chloro-6-(4-chloro-2-fluoro-3-methoxyphenyl)-5-fluoropyridine-2-carboxylic acid (Compound A), each formulated as an SC (suspension concentrate), and various insecticidal components alone and in combination. Forms of compound A were applied on an acid equivalent basis.
# (§3) For treatments comprised of formulated compounds, measured amounts of compounds were placed individually in 25 mL glass vials and diluted in a volume of 1.25% volume per volume (v/v) Agri-Dex® crop oil concentrate to obtain 12× stock solutions. […] Application solutions were prepared by adding an appropriate amount of each stock solution (e.g., 1 mL) and diluted to the appropriate final concentrations with the addition of […] of an aqueous mixture of 1.25% (v/v) crop oil concentrate so that the final spray solutions contained 1.25+/−0.05% (v/v) crop oil concentrate.
# (§4) As required, additional water and/or 97:3 v/v acetone/DMSO was added to individual application solutions so that the final acetone and DMSO concentrations of the application solutions being compared were 8.1% and 0.25%, respectively.
# (§5) All stock solutions and applications solutions were visually inspected for compound compatibility prior to application. Spray solutions were applied to the plant material with an overhead Mandel track sprayer equipped with 8002E nozzles calibrated to deliver 187 L/ha over an application area of 0.503 square meters (m^2) at a spray height of 18 to 20 inches (46 to 50 cm) above average plant canopy height. Control plants were sprayed in the same manner with the solvent blank.
# (§6) The treated plants and control plants were placed in a greenhouse as described above and watered by sub-irrigation to prevent wash-off of the test compounds. After approximately 3 weeks, the condition of the test plants as compared to that of the untreated plants was determined visually and scored on a scale of 0 to 100 percent where 0 corresponds to no injury or growth inhibition and 100 corresponds to complete kill.
# (§7) Colby's equation was used to determine the herbicidal effects expected from the mixtures (Colby, S. R. Calculation of the synergistic and antagonistic response of herbicide combinations. Weeds 1967, 15, 20-22.).
# (§8) The following equation was used to calculate the expected activity of mixtures containing two active ingredients, A and B: Expected=A+B−(A×B/100)
# DIGSA = type: in vivo, Digitaria sanguinalis
# Description: as §1, §2, §3, §4, §5, §6, §7, §8
# LEFPA = experiment: Postemergence foliar-applied weed control, direct-seeded rice (greenhouse); type: in vivo, Leptochloa panicoides
# Source text: (§9) Seeds or nutlets of the desired test plant species were planted in a soil matrix prepared by mixing a loam or sandy loam soil (e.g., 28.6 percent silt, 18.8 percent clay, and 52.6 percent sand, with a pH of about 5.8 and an organic matter content of about 1.8 percent) and calcareous grit in an 80 to 20 ratio. The soil matrix was contained in plastic pots with a volume of 1 quart and a surface area of 83.6 square centimeters (cm^2). When required to ensure good germination and healthy plants, a fungicide treatment and/or other chemical or physical treatment was applied. The plants were grown for 8-22 days in a greenhouse with an approximate 14 hour (h) photoperiod which was maintained at about 29° C. during the day and 26° C. during the night. Nutrients (Peters Excel® 15-5-15 5-Ca 2-Mg and iron chelate) were applied in the irrigation solution as needed and water was added on a regular basis. Supplemental lighting was provided with overhead metal halide 1000-Watt lamps as necessary. The plants were employed for testing when they reached the first through fourth true leaf stage.
# as §2
# (§10) Treatment requirements were calculated based upon the rates being tested, the concentration of active ingredient or acid equivalent in the formulation, and a 12 milliliter (mL) application volume at a rate of 187 liters per hectare (L/ha).
# as §3, §4, §5, §6, §7, §8
# ECHCG = type: in vivo, Echinochloa crus-galli; details: 22 DAA
# Description: as §1, §2, §3, §4, §5, §6, §7, §8
# LEFFA = experiment: Postemergence foliar-applied weed control, direct-seeded rice (greenhouse); type: in vivo, Leptochloa fascicularis; details: 22 DAA
# Source text: as §9, §2, §10, §3, §4, §5, §6, §7, §8
# [1] = 22 DAA, 140 g ai/ha alone, second part of Table 18
# [2] = 22 DAA, 280 g ai/ha alone, second part of Table 18
# [3] = 22 DAA, 560 g ai/ha alone, second part of Table 18
compound,measurement,setting,value
"CCOC(=O)CC(SP(=S)(OC)OC)C(=O)OCC (stereo not shown) [Malathion, S-1,2-bis(ethoxycarbonyl)ethyl O,O-dimethyl phosphorodithioate]",pest or weed control at 140 g/ha,"LEFCH; 22 DAA, 140 g ai/ha alone",0%
same,pest or weed control at 140 g/ha,LEFCH; [1],0%
same,pest or weed control at 280 g/ha,"LEFCH; 22 DAA, 280 g ai/ha alone",0%
same,pest or weed control at 280 g/ha,LEFCH; [2],0%
same,pest or weed control at 560 g/ha,"LEFCH; 22 DAA, 560 g ai/ha alone",0%
same,pest or weed control at 560 g/ha,LEFCH; [3],0%
same,Visual Weed Control (%) - 22 DAA DIGSA Obs,"DIGSA; 22 DAA, 140 g ai/ha alone",0%
same,Visual Weed Control (%) - 22 DAA DIGSA Obs,DIGSA; [1],0%
same,Visual Weed Control (%) - 22 DAA DIGSA Obs,"DIGSA; 22 DAA, 280 g ai/ha alone",0%
same,Visual Weed Control (%) - 22 DAA DIGSA Obs,DIGSA; [2],0%
same,Visual Weed Control (%) - 22 DAA DIGSA Obs,"DIGSA; 22 DAA, 560 g ai/ha alone",0%
same,Visual Weed Control (%) - 22 DAA DIGSA Obs,DIGSA; [3],0%
same,Visual Weed Control (%) - 22 DAA LEFPA Obs,LEFPA; 140 g ai/ha alone,0%
same,Visual Weed Control (%) - 22 DAA LEFPA Obs,LEFPA; 280 g ai/ha alone,0%
same,Visual Weed Control (%) - 22 DAA LEFPA Obs,LEFPA; 560 g ai/ha alone,0%
same,Visual Weed Control (%) - 22 DAA ECHCG Obs,ECHCG; 140 g ai/ha alone,0%
same,Visual Weed Control (%) - 22 DAA ECHCG Obs,ECHCG; 280 g ai/ha alone,0%
same,Visual Weed Control (%) - 22 DAA ECHCG Obs,ECHCG; 560 g ai/ha alone,0%
same,Visual Weed Control (%) - 22 DAA LEFFA Obs,LEFFA; 140 g ai/ha alone,0%
same,Visual Weed Control (%) - 22 DAA LEFFA Obs,LEFFA; 280 g ai/ha alone,0%
same,Visual Weed Control (%) - 22 DAA LEFFA Obs,LEFFA; 560 g ai/ha alone,0%
"CCCCOCCOCCOCc1cc2c(cc1CCC)OCO2 [Piperonyl Butoxide, 5-[[2-(2-butoxyethoxy)ethoxy]methyl]-6-propyl-1,3-benzodioxole]",pest or weed control at 140 g/ha,LEFCH,0%
same,pest or weed control at 280 g/ha,LEFCH,0%
same,pest or weed control at 560 g/ha,LEFCH,0%
same,Visual Weed Control (%) - 22 DAA DIGSA Obs,DIGSA; in vivo,0%
same,Visual Weed Control (%) - 22 DAA LEFPA Obs,LEFPA; 140 g ai/ha alone,0%
same,Visual Weed Control (%) - 22 DAA LEFPA Obs,LEFPA; 280 g ai/ha alone,5%
same,Visual Weed Control (%) - 22 DAA LEFPA Obs,LEFPA; 560 g ai/ha alone,0%
same,Visual Weed Control (%) - 22 DAA LEFFA Obs,LEFFA; 140 g ai/ha alone,0%
same,Visual Weed Control (%) - 22 DAA LEFFA Obs,LEFFA; 280 g ai/ha alone,5%
same,Visual Weed Control (%) - 22 DAA LEFFA Obs,LEFFA; 560 g ai/ha alone,0%
